Experimental findings from ChEMBL document CHEMBL1137188, “Substituted 6-phenyl-pyridin-2-ylamines: selective and potent inhibitors of neuronal nitric oxide synthase” (Bioorg Med Chem Lett, 2004) are described below.

One assay concerns the target Nitric oxide synthase 1 (Homo sapiens, UniProt P29475). Put plainly: Inhibitory activity against neuronal nitric oxide synthase in human.
The target in the next assay is T1, Nitric oxide synthase 3 (Homo sapiens, UniProt P29474).
T1 sequence (P29474 whole entry): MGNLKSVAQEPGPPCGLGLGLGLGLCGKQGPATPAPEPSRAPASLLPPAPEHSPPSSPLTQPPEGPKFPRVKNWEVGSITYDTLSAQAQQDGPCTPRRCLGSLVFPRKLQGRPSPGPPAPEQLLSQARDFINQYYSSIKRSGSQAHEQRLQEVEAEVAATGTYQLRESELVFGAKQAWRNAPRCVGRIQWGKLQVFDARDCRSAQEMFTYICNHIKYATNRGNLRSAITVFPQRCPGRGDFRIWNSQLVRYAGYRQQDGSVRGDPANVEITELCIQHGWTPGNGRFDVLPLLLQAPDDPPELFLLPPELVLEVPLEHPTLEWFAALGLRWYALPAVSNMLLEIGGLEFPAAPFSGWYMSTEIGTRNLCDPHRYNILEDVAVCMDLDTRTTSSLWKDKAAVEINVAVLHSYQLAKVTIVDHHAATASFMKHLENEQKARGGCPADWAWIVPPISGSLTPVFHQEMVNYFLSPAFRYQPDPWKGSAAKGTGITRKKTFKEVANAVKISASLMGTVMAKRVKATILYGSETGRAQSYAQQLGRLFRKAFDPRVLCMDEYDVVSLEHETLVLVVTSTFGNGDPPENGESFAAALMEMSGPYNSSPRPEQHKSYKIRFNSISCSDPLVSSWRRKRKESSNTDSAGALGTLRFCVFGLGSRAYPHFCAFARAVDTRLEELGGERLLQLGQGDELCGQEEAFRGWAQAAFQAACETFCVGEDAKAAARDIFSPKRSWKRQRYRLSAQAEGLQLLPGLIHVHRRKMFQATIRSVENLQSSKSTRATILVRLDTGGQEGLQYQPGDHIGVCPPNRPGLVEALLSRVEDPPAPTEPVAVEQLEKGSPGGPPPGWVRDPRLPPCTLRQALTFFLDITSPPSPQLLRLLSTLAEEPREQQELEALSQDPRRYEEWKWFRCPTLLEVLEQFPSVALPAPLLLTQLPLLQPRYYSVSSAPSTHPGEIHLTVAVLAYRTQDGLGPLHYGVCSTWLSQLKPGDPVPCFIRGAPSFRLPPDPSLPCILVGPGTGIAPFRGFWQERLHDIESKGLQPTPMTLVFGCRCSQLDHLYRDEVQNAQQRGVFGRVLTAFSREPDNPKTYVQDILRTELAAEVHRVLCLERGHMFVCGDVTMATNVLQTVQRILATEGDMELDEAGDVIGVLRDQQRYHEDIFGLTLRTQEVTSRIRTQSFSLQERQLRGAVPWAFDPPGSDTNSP
Put plainly: Inhibitory activity against endothelial nitric oxide synthase in human.

Sequence of Nitric oxide synthase 1 (P29475 whole entry): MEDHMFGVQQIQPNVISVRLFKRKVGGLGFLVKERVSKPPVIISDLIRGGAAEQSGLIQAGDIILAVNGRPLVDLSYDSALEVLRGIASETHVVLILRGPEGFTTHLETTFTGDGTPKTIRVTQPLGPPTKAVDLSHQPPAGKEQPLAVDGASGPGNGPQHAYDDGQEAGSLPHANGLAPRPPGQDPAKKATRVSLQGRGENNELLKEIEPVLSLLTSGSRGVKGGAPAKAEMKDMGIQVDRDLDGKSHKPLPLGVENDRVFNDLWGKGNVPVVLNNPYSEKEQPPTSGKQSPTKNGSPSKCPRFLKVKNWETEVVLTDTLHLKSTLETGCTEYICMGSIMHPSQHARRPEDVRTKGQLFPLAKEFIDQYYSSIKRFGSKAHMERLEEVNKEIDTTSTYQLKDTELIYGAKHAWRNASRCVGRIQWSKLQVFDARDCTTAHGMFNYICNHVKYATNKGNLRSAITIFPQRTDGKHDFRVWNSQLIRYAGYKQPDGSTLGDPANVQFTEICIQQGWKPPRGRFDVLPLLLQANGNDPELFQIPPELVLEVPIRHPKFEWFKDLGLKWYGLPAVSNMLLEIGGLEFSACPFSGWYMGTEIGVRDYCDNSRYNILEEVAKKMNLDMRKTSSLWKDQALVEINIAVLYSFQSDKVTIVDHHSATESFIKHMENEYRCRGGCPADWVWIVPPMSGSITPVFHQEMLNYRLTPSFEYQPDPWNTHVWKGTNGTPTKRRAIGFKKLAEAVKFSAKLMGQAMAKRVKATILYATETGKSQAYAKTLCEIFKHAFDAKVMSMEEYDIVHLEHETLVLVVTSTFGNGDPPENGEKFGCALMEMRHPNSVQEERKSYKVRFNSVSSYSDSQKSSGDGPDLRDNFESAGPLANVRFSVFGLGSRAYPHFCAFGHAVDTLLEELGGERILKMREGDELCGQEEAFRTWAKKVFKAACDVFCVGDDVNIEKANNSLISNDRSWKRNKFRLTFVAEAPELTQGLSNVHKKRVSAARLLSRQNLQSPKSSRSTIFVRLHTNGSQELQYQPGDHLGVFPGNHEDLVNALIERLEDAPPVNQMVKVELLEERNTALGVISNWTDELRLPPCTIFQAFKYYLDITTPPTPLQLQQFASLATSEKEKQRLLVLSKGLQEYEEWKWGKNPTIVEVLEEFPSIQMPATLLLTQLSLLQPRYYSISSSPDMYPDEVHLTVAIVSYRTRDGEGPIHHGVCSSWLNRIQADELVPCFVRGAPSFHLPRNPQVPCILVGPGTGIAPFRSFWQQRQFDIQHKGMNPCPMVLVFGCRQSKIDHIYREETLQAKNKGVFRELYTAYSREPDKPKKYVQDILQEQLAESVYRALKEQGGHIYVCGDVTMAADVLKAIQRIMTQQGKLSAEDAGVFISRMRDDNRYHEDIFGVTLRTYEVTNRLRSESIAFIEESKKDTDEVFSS

As for `CCc1cc(-c2cccc(N)n2)c(OC)cc1OCCN(C)C`, the values for the half-maximal inhibitory concentration (IC50) against Nitric oxide synthase 1 and at Nitric oxide synthase 3 were 58 nM and 3710 nM, respectively. For `COc1cc(-c2cccc(N)n2)c(OC)cc1CCN(C)C` the same measures were 235 nM and greater than 32000 nM. For `COc1cc(-c2cccc(N)n2)c(OC)cc1CCCN(C)C` the same measures were 200 nM and greater than 32000 nM. The corresponding values for `COc1cc(-c2cccc(N)n2)c(OC)cc1OCCN(C)C` are 112 nM and 21900 nM.

With `CCc1cc(-c2cccc(N)n2)c(OC)cc1CCCN(C)C`, the IC50 (as a rule, the concentration that inhibits the measured activity by half) against Nitric oxide synthase 1 was 75 nM; on Nitric oxide synthase 3, greater than 7700 nM. The corresponding values for `COc1cc(-c2cccc(N)n2)c(OC)cc1CN(C)C` are 810 nM and greater than 32000 nM.

With `CCc1cc(-c2cccc(N)n2)c(OC)cc1CCN(C)C`, the 50% inhibitory concentration (IC50) at Nitric oxide synthase 1 was found to be 75 nM; against Nitric oxide synthase 3 it was 16500 nM. With `CCc1cc(-c2cccc(N)n2)c(OC)cc1CN(C)C`, the IC50 on Nitric oxide synthase 3 came out at 8830 nM.
